Experimental data published in patent publication US9683019B2, “Cyclic polypeptides for the treatment of heart failure” (priority 2013, dated 2017).
Where two headings read alike, the source gives them in different places. Where a SMILES comes first, the peptide text is derived from it. Bridges are numbered along the chain shown (N, C = ends). [ ]: non-standard residue; d: D form. NMeF = CN[C@@H](Cc1ccccc1)C(=O)O; pGlu = O=C1CC[C@@H](C(=O)O)N1; d(hCys) = N[C@H](CCS)C(=O)O; dNle = CCCC[C@@H](N)C(=O)O; dNva = CCC[C@@H](N)C(=O)O; hCys = N[C@@H](CCS)C(=O)O; Nle = CCCC[C@H](N)C(=O)O; dAbu = CC[C@@H](N)C(=O)O

Experiments:
hAPJ = target: T1, hAPJ (Homo sapiens, UniProt P35414); assay: hAPJ Calcium Flux Assay; type: cell-based; conditions: Chem-5 APJ stable cells, calcium flux stimulation; read-out: hAPJ Ca2+ Flux EC50
T1 sequence (P35414 1-380): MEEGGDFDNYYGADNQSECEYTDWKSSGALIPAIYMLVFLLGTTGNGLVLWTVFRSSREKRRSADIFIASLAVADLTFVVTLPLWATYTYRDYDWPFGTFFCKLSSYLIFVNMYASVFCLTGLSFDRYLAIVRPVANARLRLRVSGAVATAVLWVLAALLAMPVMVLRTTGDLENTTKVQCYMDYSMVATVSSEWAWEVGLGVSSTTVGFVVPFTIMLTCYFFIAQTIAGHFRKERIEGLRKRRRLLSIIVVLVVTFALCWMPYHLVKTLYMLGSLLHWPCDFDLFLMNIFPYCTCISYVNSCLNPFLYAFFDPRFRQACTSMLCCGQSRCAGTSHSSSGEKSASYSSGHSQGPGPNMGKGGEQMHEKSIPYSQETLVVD
Method: Chem-5 APJ stable cells (Millipore # HTS068C) were plated in 384-well format with 10,000 cells/well in 25 ul growth media, then grown 24 hours in a 37° C. tissue culture incubator. One hour before the assay, 25 ul/well FLIPR Calcium 4 dye (Molecular Devices R8142) with 2.5 mM probenecid was added, and cells were incubated one hour in a 37° C. tissue culture incubator. Peptides were solubilized in HBSS, HEPES & 0.1% BSA buffer, and serially-diluted 10-fold, from 50 uM to 5 pM, in triplicate. FLIPR Tetra was used to add peptide to the cells with dye (1:5, for final peptide concentrations ranging from 10 uM to 1 pM). FLIPR dye inside the cells emitted fluorescence after binding to calcium, while fluorescence from outside the cells was masked. […] Readings were done for 3 minutes total, beginning 10 seconds before the peptide addition. Maximum-minimum values were calculated and plotted for each peptide concentration, and GraphPad prism software was used to calculate EC50 values at the curve inflection points, for calcium flux stimulation by peptides.

[1] = Surrogate Activity-Based Plasma Stability Assay; type: in vitro ADME; conditions: rat
Text: Surrogate Activity-Based Plasma Stability Assay:
2) Calculate slope of value above and […]

| Structure (SMILES) | EC50 (hAPJ) [nM] | half-life [1] [min] | half-life ([1]; read-out: Surrogate activity-based Plasma stability t½) [min] |
| --- | --- | --- | --- |
| CCCC[C@H](NC(=O)[C@@H]1CCCN1C(=O)CNC(=O)[C@H](CCCCN)NC(=O)[C@@H]1CCSSC[C@H](NC(C)=O)C(=O)N[C@@H](CCCNC(=N)N)C(=O)N2CCC[C@H]2C(=O)N[C@@H](CCCNC(=N)N)C(=O)N[C@@H](CC(C)C)C(=O)N[C@@H](CO)C(=O)N1)C(=O)N1CCC[C@H]1C(=O)N[C@@H](Cc1ccccc1)C(=O)O [Example 6, Ac-C*-R-P-R-L-S-hC*-K-G-P-Nle-P-F-OH] (Ac-CRPRLS[hCys]KGP[Nle]PF-OH; disulfide 1-7) | 21.4 | 5 | – |
| CCCC[C@H](NC(=O)[C@@H]1CCCN1C(=O)CNC(=O)[C@H](CCCCN)NC(=O)[C@@H]1CSSC[C@@H](NC(C)=O)C(=O)N[C@@H](CCCNC(=N)N)C(=O)N2CCC[C@H]2C(=O)N[C@@H](CCCNC(=N)N)C(=O)N[C@@H](CC(C)C)C(=O)N[C@@H](CO)C(=O)N1)C(=O)N1CCC[C@H]1C(=O)N[C@@H](Cc1ccccc1)C(=O)O [Example 12, Ac-c*-R-P-R-L-S-C*-K-G-P-Nle-P-F-OH] (Ac-[dC]RPRLSCKGP[Nle]PF-OH; disulfide 1-7) | 21.4 | 10 | – |
| CCCC[C@@H](NC(=O)[C@@H]1CCCN1C(=O)CNC(=O)[C@H](CCCCN)NC(=O)[C@@H]1CSSC[C@H](NC(=O)[C@H](CCCNC(=N)N)NC(=O)[C@@H]2CCC(=O)N2)C(=O)N[C@@H](CCCNC(=N)N)C(=O)N[C@@H](CC(C)C)C(=O)N[C@@H](CO)C(=O)N1)C(N)=O [Example 25, pE-R-C*-R-L-S-C*-K-G-P-(D-Nle)-NH2] ([pGlu]RCRLSCKGP[dNle]-NH2; disulfide 3-7) | – | > 1000 | – |
| CCCC[C@H](NC(=O)[C@@H]1CCCN1C(=O)CNC(=O)[C@H](CCCCN)NC(=O)[C@@H]1CSSC[C@H](NC(=O)[C@@H]2CCCN2C(=O)[C@H](CCCNC(=N)N)NC(=O)[C@@H]2CCC(=O)N2)C(=O)N[C@@H](CC(C)C)C(=O)N[C@@H](CO)C(=O)N1)C(=O)N1CCC[C@H]1C(=O)N(C)[C@@H](Cc1ccccc1)C(=O)O [Example 29, pE-R-P-C*-L-S-C*-K-G-P-Nle-P-(N-Me)F-OH] ([pGlu]RPCLSCKGP[Nle]P[NMeF]-OH; disulfide 4-7) | 4.2 | 705 | – |
| CCCC[C@H](NC(=O)[C@@H]1CCCN1C(=O)CNC(=O)[C@H](CCCCN)NC(=O)[C@@H]1CSSC[C@H](NC(=O)[C@@H]2CCCN2C(=O)[C@H](CCCNC(=N)N)NC(=O)[C@@H]2CCC(=O)N2)C(=O)N[C@@H](CC(C)C)C(=O)N[C@@H](CO)C(=O)N1)C(=O)N1CCC[C@H]1C(=O)NCCc1ccccc1 [Example 30, pE-R-P-C*-L-S-C*-K-G-P-Nle-P-NH(Phenethyl)] | – | 661 | – |
| CCCC[C@H](NC(=O)[C@@H]1CCCN1C(=O)CNC(=O)[C@H](CCCCN)NC(=O)[C@@H]1CSSC[C@H](NC(=O)[C@@H]2CCCN2C(=O)[C@H](CCCNC(=N)N)NC(=O)[C@@H]2CCC(=O)N2)C(=O)N[C@@H](CC(C)C)C(=O)N[C@@H](CO)C(=O)N1)C(=O)NCCc1ccccc1 [Example 31, pE-R-P-C*-L-S-C*-K-G-P-Nle-NH(Phenethyl)] | – | 43.1 | – |
| CCCC[C@@H](NC(=O)[C@@H]1CCCN1C(=O)CNC(=O)[C@H](CCCCN)NC(=O)[C@@H]1CSSC[C@H](NC(=O)[C@@H]2CCCN2C(=O)[C@H](CCCNC(=N)N)NC(=O)[C@@H]2CCC(=O)N2)C(=O)N[C@@H](CC(C)C)C(=O)N[C@@H](CO)C(=O)N1)C(=O)N[C@H](C)C(=O)N[C@H](Cc1ccccc1)C(=O)O [Example 33, pE-R-P-C*-L-S-C*-K-G-P-(D-Nle)-a-f-OH] ([pGlu]RPCLSCKGP[dNle][dA][dF]-OH; disulfide 4-7) | – | > 1000 | – |
| CCCC[C@@H](NC(=O)[C@@H]1CCCN1C(=O)CNC(=O)[C@H](CCCCN)NC(=O)[C@@H]1CSSC[C@H](NC(=O)[C@@H]2CCCN2C(=O)[C@H](CCCNC(=N)N)NC(=O)[C@@H]2CCC(=O)N2)C(=O)N[C@@H](CC(C)C)C(=O)N[C@@H](CO)C(=O)N1)C(=O)N[C@H](Cc1ccccc1)C(=O)O [Example 34, pE-R-P-C*-L-S-C*-K-G-P-(D-Nle)-f-OH] ([pGlu]RPCLSCKGP[dNle][dF]-OH; disulfide 4-7) | – | > 1000 | – |
| C=CCCCCCCCCCC(CCCCCCCCCCC(=O)O)(C(=O)O)C(=O)NCCOCCOCCOCCOCCOCCOCCOCCOCCOCCOCCOCCOCCOCCOCCOCCOCCOCCOCCOCCOCCOCCOCCOCCn1nnc2c1CC[C@H]1[C@@H](CC2)[C@H]1COC(=O)NCCCC[C@H](NC(=O)[C@@H]1CSSC[C@H](NC(=O)[C@@H]2CCCN2C(=O)[C@H](CCCNC(=N)N)NC(=O)[C@@H]2CCC(=O)N2)C(=O)N[C@@H](CC(C)C)C(=O)N[C@@H](CO)C(=O)N1)C(=O)NCC(=O)N1CCC[C@H]1C(=O)N[C@H](CCCC)C(=O)NCCc1ccccc1 (some centres unmarked) [Example 40] | – | – | > 1000 |

The next lines start with results.

| EC50 (hAPJ) [nM] | half-life [1] [min] | Structure (SMILES) | half-life ([1]; read-out: Surrogate activity-based Plasma stability t½) [min] |
| --- | --- | --- | --- |
| 193 | 17.7 | CCCC[C@H](NC(=O)[C@@H]1CCCN1C(=O)CNC(=O)[C@H](CCCCN)NC(=O)[C@H]1CSSC[C@H](NC(C)=O)C(=O)N[C@@H](CCCNC(=N)N)C(=O)N2CCC[C@H]2C(=O)N[C@@H](CCCNC(=N)N)C(=O)N[C@@H](CC(C)C)C(=O)N[C@@H](CO)C(=O)N1)C(=O)N1CCC[C@H]1C(=O)N[C@@H](Cc1ccccc1)C(=O)O [Example 15, Ac-C*-R-P-R-L-S-c*-K-G-P-Nle-P-F-OH] (Ac-CRPRLS[dC]KGP[Nle]PF-OH; disulfide 1-7) | – |
| – | 1700 | CCCC[C@@H](NC(=O)[C@@H]1CCCN1C(=O)[C@H](C)NC(=O)[C@H](CCCCN)NC(=O)[C@@H]1CSSC[C@H](NC(=O)[C@H](CCCNC(=N)N)NC(=O)[C@@H]2CCC(=O)N2)C(=O)N[C@@H](CCCNC(=N)N)C(=O)N[C@@H](CC(C)C)C(=O)N[C@@H](CO)C(=O)N1)C(=O)N[C@H](C)C(=O)N[C@H](Cc1ccccc1)C(=O)O [Example 24, pE-R-C*-R-L-S-C*-K-A-P-(D-Nle)-a-f-OH] ([pGlu]RCRLSCKAP[dNle][dA][dF]-OH; disulfide 3-7) | – |
| – | 52 | CC(C)C[C@@H]1NC(=O)[C@H](CCCNC(=N)N)NC(=O)[C@@H](NC(=O)[C@H](CCCNC(=N)N)NC(=O)[C@@H]2CCC(=O)N2)CSSCC[C@H](C(=O)N[C@@H](CCCCN)C(=O)NCC(=O)N2CCC[C@H]2C(=O)N[C@H](Cc2ccccc2)C(=O)N[C@H](C)C(=O)N[C@H](Cc2ccccc2)C(=O)O)NC(=O)[C@H](CO)NC1=O [Example 26, pE-R-C*-R-L-S-(D-hC)*-K-G-P-f-a-f-OH] ([pGlu]RCRLS[d(hCys)]KGP[dF][dA][dF]-OH; disulfide 3-7) | – |
| – | 82 | CCCC[C@@H](NC(=O)[C@@H]1CCCN1C(=O)CNC(=O)[C@H](CCCCN)NC(=O)[C@@H]1CSSC[C@@H](NC(=O)[C@H](CCCNC(=N)N)NC(=O)[C@@H]2CCC(=O)N2)C(=O)N[C@@H](CCCNC(=N)N)C(=O)N[C@@H](CC(C)C)C(=O)N[C@@H](CO)C(=O)N1)C(=O)N[C@H](CC)C(=O)N[C@H](Cc1ccccc1)C(=O)O [Example 27, pE-R-c*-R-L-S-C*-K-G-P-(D-Nle)-(D-abu)-f-OH] ([pGlu]R[dC]RLSCKGP[dNle][dAbu][dF]-OH; disulfide 3-7) | – |
| – | 13 | CCCC[C@H](NC(=O)[C@@H]1CCCN1C(=O)CNC(=O)[C@H](CCCCN)NC(=O)[C@@H]1CSSC[C@H](NC(=O)[C@@H]2CCCN2C(=O)[C@H](CCCNC(=N)N)NC(=O)[C@@H]2CCC(=O)N2)C(=O)N[C@@H](CC(C)C)C(=O)N[C@@H](CO)C(=O)N1)C(=O)N1CCC[C@H]1C(=O)N[C@@H](Cc1ccccc1)C(=O)O [Example 28, pE-R-P-C*-L-S-C*-K-G-P-Nle-P-F-OH] ([pGlu]RPCLSCKGP[Nle]PF-OH; disulfide 4-7) | – |
| – | 47 | CCCC[C@@H](NC(=O)[C@@H]1CCCN1C(=O)CNC(=O)[C@H](CCCCN)NC(=O)[C@H]1CCSSC[C@@H](NC(=O)[C@@H]2CCCN2C(=O)[C@H](CCCNC(=N)N)NC(=O)[C@@H]2CCC(=O)N2)C(=O)N[C@@H](CC(C)C)C(=O)N[C@@H](CO)C(=O)N1)C(=O)N[C@H](C)C(=O)N[C@H](Cc1ccc(O)cc1)C(=O)O [Example 37, pE-R-P-c*-L-S-(D-hC)*-K-G-P-(D-Nle)-a-y-OH] ([pGlu]RP[dC]LS[d(hCys)]KGP[dNle][dA][dY]-OH; disulfide 4-7) | – |
| – | 41 | CCCC[C@@H](NC(=O)[C@@H]1CCCN1C(=O)CNC(=O)[C@H](CCCCN)NC(=O)[C@@H]1CCSSCC[C@@H](NC(=O)[C@@H]2CCCN2C(=O)[C@H](CCCNC(=N)N)NC(=O)[C@@H]2CCC(=O)N2)C(=O)N[C@@H](CC(C)C)C(=O)N[C@@H](CO)C(=O)N1)C(=O)N[C@H](CCC)C(=O)N[C@H](Cc1ccccc1)C(=O)O [Example 38, pE-R-P-(D-hC)*-L-S-hC*-K-G-P-(D-Nle)-(D-Nva)-f-OH] ([pGlu]RP[d(hCys)]LS[hCys]KGP[dNle][dNva][dF]-OH; disulfide 4-7) | – |
